Laboratory results reported in article PMC10778976, “BAY-3827 and SBI-0206965: Potent AMPK Inhibitors That Paradoxically Increase Thr172 Phosphorylation” (International Journal of Molecular Sciences, 2023).
Several values for one entry are separate records, joined by “and”; a condition that tells them apart may be missing. Equal entries are not always repeated. Where two headings read alike, the source gives them in different places.

Tests used:
human α1β1γ1 complex = human α1β1γ1 complex (Homo sapiens, UniProt Q13131); test: Cell-free kinase assay of bacterially expressed human α1β1γ1 complex phosphorylated on Thr172 by CaMKK2; assay type: biochemical; conditions: ATP 200 µM; read-out: IC50, inhibition of human α1β1γ1 complex
Text: AMPK assays measured the transfer of radioactivity from labelled ATP to a peptide substrate, which was separated from unreacted ATP by binding to P81 paper. This assay was described previously, except that we used [γ-^33P]ATP rather than [γ-^32P]ATP. The peptide substrate was the AMARA peptide in all experiments other than one, which analyzed allosteric activation by AMP (Figure 2A), when, for technical reasons, the SAMS peptide was used instead. With purified preparations of AMPK, it was assayed in solution, but for assays in cell lysates (Figure 3D and Figure 4D), it was first immunoprecipitated using a mixture of anti-α1 and -α2 antibodies and assayed in resuspended immunoprecipitates. After the initial immunoprecipitation of lysate containing 80 µg of protein, the pellets were washed twice with 1 mL of high salt IP buffer (50 mM Tris-HCL, pH 7.4 at 4 °C, 1 M NaCl, 1 mM EDTA, 1 mM EGTA, 50 mM NaF, 5 mM Na pyrophosphate, 1 mM dithiothreitol, 0.1% (v/v) Triton X-100) and twice with 1 mL of low salt IP buffer (as above but only 150 mM NaCl), followed by a final wash in 1 mL of assay buffer (50 mM Na Hepes, pH7.4, 150 mM NaCl, 1 mM dithiothreitol, 0.02% (v/v) Brij-35). After each wash, the pellet was recovered via centrifugation (16,000× g, 3 min) and then resuspended. […]

[1] = tested on: native AMPK purified from rat liver; test: Cell-free kinase assay of purified rat liver AMPK; assay type: biochemical; conditions: ATP 200 µM; for IC50: read-out: IC50, inhibition of rat liver AMPK complexes
Text: AMPK assays measured the transfer of radioactivity from labelled ATP to a peptide substrate, which was separated from unreacted ATP by binding to P81 paper. This assay was described previously, except that we used [γ-^33P]ATP rather than [γ-^32P]ATP. The peptide substrate was the AMARA peptide in all experiments other than one, which analyzed allosteric activation by AMP (Figure 2A), when, for technical reasons, the SAMS peptide was used instead. […] After each wash, the pellet was recovered via centrifugation (16,000× g, 3 min) and then resuspended. The final resuspended pellets from each biological replicate were divided into two aliquots (40 µg lysate protein) to provide technical replicates and assayed as above.

[2] = tested on: Raptor (Ser792) phosphorylation in U2OS cells; test: Raptor phosphorylation in U2OS cells (Western blot); assay type: cell-based, human; conditions: 30 min inhibitor then 30 min MK-8722 (300 nM), read-out: IC50, inhibition of MK-8722-stimulated Raptor phosphorylation
Experimental: (§1) T-Rex U2OS cells carrying a Flp Recombinase Target (FRT) site were generated as described previously and grown in Dulbecco’s Modified Eagle’s Medium (DMEM) supplemented with 10% (v/v) FBS and 1% (v/v) penicillin/streptomycin.
(§2) Cells were lysed rapidly in situ on culture plates using ice-cold lysis medium containing phosphatase inhibitors, as described previously.
(§3) SDS-PAGE was performed using precast NuPAGE Tris-acetate 3–8% gradient polyacrylamide gels in Tris-acetate running buffer when analyzing ACC, GBF1, or Raptor, or NuPAGE Bis-Tris 4–12% gradient polyacrylamide gels in the MOPS buffer system (ThermoFisher Scientific, Waltham, MA, USA) for other proteins (unless stated otherwise). Proteins were transferred to nitrocellulose membranes using the iBlot 2 system (ThermoFisher Scientific). Membranes were enhanced if necessary using SuperSignal Western Blot Enhancer (ThermoFisher Scientific), then blocked for 1 h in Li-Cor Odyssey blocking buffer. The membranes were probed with the appropriate primary antibody ([…]) overnight at 4 °C. Detection was performed using secondary antibody or streptavidin probe (for total ACC) coupled to IR 680 or IR 800 dye, and the membranes were scanned using the LICOR Odyssey IR imager. Protein concentrations were determined by Coomassie Blue binding with bovine serum albumin as a standard. The cellular levels of AMP and ATP were determined via direct perchloric acid extraction from cells, with LC:MS used to estimate the levels of each nucleotide.

[3] = tested on: endogenous AMPK from HEK-293 cells; test: Activation of dephosphorylated immunoprecipitated AMPK by the LKB1 complex; assay type: biochemical, human; conditions: increasing concentrations; SBI-0206965 effect reversed above 1 µM
Experimental: AMPK was immunoprecipitated from HEK-293 cell lysate (2.5 mg protein) using a mixture of anti-α1 and -α2 antibodies. After extensive washing, it was incubated in a shaking incubator at 30 °C for 20 min in Hepes buffer with 50 mM MgCl2 and sufficient PPM1A to yield about 90% inactivation (total volume of 250 µL). The reaction was terminated by adding 1 mL of IP buffer and, after additional washing in the same buffer, aliquots equivalent to 80 µg of lysate protein were incubated in a shaking incubator at 30 °C for 10 min in Hepes buffer with […] and 5 mM MgCl2, with or without a limiting amount of LKB1:STRADα:MO25α complex (0.5 µg) in the presence or absence of 200 µM AMP or the indicated concentration of BAY-3827 or SBI-0206965 (total volume of 50 µL). The reaction was terminated by adding 1 mL of IP buffer and, after additional washing in the same buffer and a final wash into Hepes buffer, AMPK activity was determined using kinase assays as above.

[4] = tested on: GBF1 (Thr1337) phosphorylation in U2OS cells; test: GBF1 phosphorylation in U2OS cells (Western blot); assay type: cell-based, human; conditions: 30 min inhibitor then 30 min MK-8722 (300 nM), read-out: IC50, inhibition of MK-8722-stimulated GBF1 phosphorylation
Experimental: as §1, §2, §3

AMPK in U2OS cells = test: AMPK activity in anti-α1/-α2 immunoprecipitates from treated U2OS cells; assay type: cell-based, human
Text: as §1, §2
AMPK assays measured the transfer of radioactivity from labelled ATP to a peptide substrate, which was separated from unreacted ATP by binding to P81 paper. This assay was described previously, except that we used [γ-^33P]ATP rather than [γ-^32P]ATP. The peptide substrate was the AMARA peptide in all experiments other than one, which analyzed allosteric activation by AMP (Figure 2A), when, for technical reasons, the SAMS peptide was used instead. With purified preparations of AMPK, it was assayed in solution, but for assays in cell lysates (Figure 3D and Figure 4D), it was first immunoprecipitated using a mixture of anti-α1 and -α2 antibodies and assayed in resuspended immunoprecipitates. After the initial immunoprecipitation of lysate containing 80 µg of protein, the pellets were washed twice with 1 mL of high salt IP buffer (50 mM Tris-HCL, pH 7.4 at 4 °C, 1 M NaCl, 1 mM EDTA, 1 mM EGTA, 50 mM NaF, 5 mM Na pyrophosphate, 1 mM dithiothreitol, 0.1% (v/v) Triton X-100) and twice with 1 mL of low salt IP buffer (as above but only 150 mM NaCl), followed by a final wash in 1 mL of assay buffer (50 mM Na Hepes, pH7.4, 150 mM NaCl, 1 mM dithiothreitol, 0.02% (v/v) Brij-35). After each wash, the pellet was recovered via centrifugation (16,000× g, 3 min) and then resuspended. The final resuspended pellets from each biological replicate were divided into two aliquots (40 µg lysate protein) to provide technical replicates and assayed as above.

[5] = tested on: phosphorylation of Thr172 on AMPK-α in U2OS cells; test: AMPK Thr172 phosphorylation in U2OS cells (Western blot); assay type: cell-based, human
Experimental: as §1, §2, §3

Sequence of human α1β1γ1 complex (Q13131 whole entry): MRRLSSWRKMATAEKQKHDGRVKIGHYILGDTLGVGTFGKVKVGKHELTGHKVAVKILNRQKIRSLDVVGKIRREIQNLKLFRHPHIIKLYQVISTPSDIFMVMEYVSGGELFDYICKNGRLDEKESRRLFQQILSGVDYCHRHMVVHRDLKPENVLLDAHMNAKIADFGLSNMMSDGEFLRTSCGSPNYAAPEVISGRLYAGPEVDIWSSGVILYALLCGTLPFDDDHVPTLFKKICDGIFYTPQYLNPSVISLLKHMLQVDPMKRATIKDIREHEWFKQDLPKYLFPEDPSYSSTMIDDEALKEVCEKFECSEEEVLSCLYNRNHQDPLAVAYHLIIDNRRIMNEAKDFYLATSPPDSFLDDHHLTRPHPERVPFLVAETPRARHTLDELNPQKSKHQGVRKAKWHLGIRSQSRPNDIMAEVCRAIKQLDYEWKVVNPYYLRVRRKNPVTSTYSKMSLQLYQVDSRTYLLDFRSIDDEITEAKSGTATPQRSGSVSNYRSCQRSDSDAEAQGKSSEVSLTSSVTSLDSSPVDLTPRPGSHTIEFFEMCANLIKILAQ
Sequence of human α1β1γ1 complex (P54619 whole entry, further chain): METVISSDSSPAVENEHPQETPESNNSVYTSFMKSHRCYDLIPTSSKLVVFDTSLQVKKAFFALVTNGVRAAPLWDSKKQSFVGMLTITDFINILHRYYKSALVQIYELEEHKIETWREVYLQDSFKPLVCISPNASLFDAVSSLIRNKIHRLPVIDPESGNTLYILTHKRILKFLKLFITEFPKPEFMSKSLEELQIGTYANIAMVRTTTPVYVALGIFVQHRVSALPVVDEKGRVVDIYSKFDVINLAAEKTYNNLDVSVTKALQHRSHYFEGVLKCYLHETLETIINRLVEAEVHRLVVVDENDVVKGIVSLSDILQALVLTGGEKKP
Sequence of human α1β1γ1 complex (Q9Y478 2-270, further chain): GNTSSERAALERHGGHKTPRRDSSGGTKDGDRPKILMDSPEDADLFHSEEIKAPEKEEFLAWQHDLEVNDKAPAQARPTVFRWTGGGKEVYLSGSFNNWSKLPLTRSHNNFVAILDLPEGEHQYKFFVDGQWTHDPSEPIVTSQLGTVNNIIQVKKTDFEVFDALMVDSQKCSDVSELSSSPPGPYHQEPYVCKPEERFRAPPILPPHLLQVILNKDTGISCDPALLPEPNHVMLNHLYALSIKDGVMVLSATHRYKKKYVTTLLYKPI

| Compound | IC50 (human α1β1γ1 complex) | fold more potent than SBI-0206965 against purified rat liver AMPK [1] | IC50 [1] | IC50 ([2]; Homo sapiens, 0.5 h) | effect on activation of AMPK by LKB1 [3] | IC50 ([4]; Homo sapiens, 0.5 h) | EC50 (AMPK in U2OS cells; Homo sapiens, U2OS cells treated with inhibitor and MK-8722, read-out: EC50, activation of AMPK activity in immunoprecipitates) | Activation of AMPK activity in immunoprecipitates (AMPK in U2OS cells; U2OS cells treated with inhibitor and MK-8722) | EC50 ([5]; Homo sapiens, read-out: EC50, half-maximal increase of Thr172 phosphorylation) | maximum increase of Thr172 phosphorylation ([5]; pThr172:total AMPK relative to control) | IC50 [2] | IC50 [4] | effect on AMPK activity in immunoprecipitates (AMPK in U2OS cells; U2OS cells, MK-8722 and increasing concentrations of inhibitor) | increase of Thr172 phosphorylation, maximal effect at low concentrations ([5]; 3–30 µM) | increase of Thr172 phosphorylation at high concentrations ([5]; 100–300 µM, not saturated) |
| --- | --- | --- | --- | --- | --- | --- | --- | --- | --- | --- | --- | --- | --- | --- | --- |
| CCc1ccccc1C(=O)Nc1n[nH]c2c(C)c(F)c(C3C(C#N)=C(C)N(C)C(C)=C3C#N)cc12 [BAY-3827] | 25 nM | > 20 fold | 17 nM | 113 nM | little or no effect | 55 nM | 84 nM | 2.5 fold | 164 nM | 9.7 fold | – | – | – | – | – |
| CNC(=O)c1ccccc1Oc1nc(Nc2cc(OC)c(OC)c(OC)c2)ncc1Br [SBI-0206965] | 247 nM and 250 nM | – | 360 nM | – | progressively promoted activation by LKB1 | – | – | – | – | – | 9200 nM | 12000 nM | increased with a similar biphasic pattern | about 2 fold | 4 fold |
